Publication PMC4947684, “In Vivo and In Vitro Genotoxic and Epigenetic Effects of Two Types of Cola Beverages and Caffeine: A Multiassay Approach” (BioMed Research International, 2016)
Where two headings read alike, the source gives them in different places.

How the values were obtained:
HL-60 cells [1] = test: DNA fragmentation status (internucleosomal ladder); type: cell-based, human; settings: HL-60, 5 h, any CAF treatment
Procedure: The ability of our compounds to induce DNA fragmentation was determined as described by Anter et al.. […] After treatment, genomic DNA was extracted using a commercial kit (Blood Genomic DNA Extraction Mini Spin Kit, […] Biotech, Cordoba, Spain). Subsequently, DNA was incubated overnight with RNase at 37°C and quantified in a spectrophotometer (Nanodrop® ND-1000). Finally, 1200 ng DNA was electrophoresed in a 2% agarose gel for 120 min at 50 V, stained with ethidium bromide, and visualised under UV light. The apoptosis process is recognised by the appearance of internucleosomal DNA fragments that are multiple of 200 base pairs.

Drosophila melanogaster [2] = test: Chronic treatments: lifespan and healthspan assays; type: in vivo; settings: for Healthspan difference (%) / Mean lifespan difference (%): versus concurrent water control
Procedure: We also tested the same compounds and concentrations as in the toxicity/antitoxicity experiments. Lifespan assays were carried out at 25°C according to the procedure described by Fernandez-Bedmar et al.. Briefly, synchronised 72 ± 12-hour-old transheterozygous larvae were washed in distilled water, collected, and transferred in groups of 100 individuals into test vials containing 0.85 g Drosophila Instant Medium and 4 mL of the different concentrations of the compounds to be assayed. Emerged adults from pupae were collected under CO2 anaesthesia and placed in groups of 25 individuals of the same sex into sterile vials containing 0.21 g Drosophila Instant Medium and 1 mL of different concentrations of the compounds to be tested. Flies were chronically treated during all their life. The number of survivors was determined twice a week.

LINE-1 = test: Methylation status of HL-60 cells (qMSP); type: cell-based, human; settings: HL-60, 5 h, 0.51 mM
Procedure: Then, DNA was extracted similarly to previously described DNA fragmentation assay. After that, the DNA was converted with bisulphite (EZ DNA Methylation-Gold™ Kit). Bisulphite-modified DNA was used for fluorescence-based real-time quantitative Methylation-Specific PCR (qMSP) using 5 μM of each forward and reverse primer (Isogen Life Science BV), 2 μL of iTaq™ Universal SYBR® Green Supermix (Bio-Rad, it contains antibody-mediated hot-start iTaq DNA polymerase, dNTPs, MgCl2, SYBR Green I Dye, enhancers, stabilizers, and a blend of passive reference dyes including ROX and fluorescein) and 25 ng of bisulphite converted genomic DNA. PCR conditions included initial denaturalisation at 95°C for 3 minutes and amplification which consisted of 45 cycles at 95°C for 10 seconds, 60°C for 15 seconds, and 72°C for 15 seconds, taking picture at the end of each elongation cycle. After that, melting curve was determined increasing 0.5°C each […] from 60°C to 95°C and taking pictures. QMSP was carried out in 48-well plates in MiniOpticon Real-Time PCR System (MJ Mini Personal Thermal Cycler, Bio-Rad) and were analysed by Bio-Rad CFX Manager 3.1 software. […] Alu-C4 and the target repetitive elements Alu M1, LINE-1, and Sat-α were obtained from Isogen Life Science and their sequences are shown in Table 1. Each sample was analysed in triplicate. The results of each CT were obtained from each qMSP. […]

Drosophila melanogaster [3] = test: Antigenotoxicity, Drosophila wing spot test (SMART), combined with H2O2; settings: combined treatment with […] H2O2, mwh/flr3, 0.51 mM
Procedure: (§2) Genotoxicity assays were carried out following the wing spot test standard procedure [20]. Briefly, transheterozygous larvae for mwh and flr ^3 genes were obtained by crossing four-day-old virgin flr ^3 females with mwh males in a 2 : 1 ratio. Four days after fertilization, females were allowed to lay eggs in fresh yeast medium (25 g yeast and 4 mL sterile distilled water) for 8 h in order to obtain synchronised larvae. After 72 h, larvae were collected, washed with distilled water, and clustered in groups of 100 individuals. […] Adult flies were collected and stored in 70% ethanol until the wings were removed and mounted on slides using Faure's solution. Mutant spots were assessed in both dorsal and ventral surfaces of the wings in a bright light microscope at 400x magnification. The frequencies of each type of mutant clone per wing (single, large, or twin spot) were compared to the concurrent negative control and analysed applying the binomial Kastenbaum and Bowman Test [36]. Antigenotoxicity tests were performed following the method described by Anter et al. [37]. […] Single and twin spots per wing were also recorded and compared with the concurrent positive control as described before. The recombination percentage was calculated following Valadares et al. [38] procedure and the inhibition percentages (IP) for the combined treatments were calculated from the control-corrected frequencies of clone formation per 10^5 cells, according to Abraham [39]: IP = [(genotoxin alone − combined treatment)/genotoxin alone] × 100.

HL-60 = tested on: HL-60; design: method as in PMID 1311329; settings: at 5 mM; cited from earlier work
D. melanogaster larvae [4] = tested on: D. melanogaster larvae
Procedure: (§3) Negative (H2O) and positive (0.15 M H2O2) toxicant concurrent controls were also assayed. Test groups consisted of larvae fed with Drosophila Instant Medium (Formula 4–24, Carolina Biological Supply, Burlington, NC) supplemented with the beverage concentrations tested. Emerging adults of all groups were counted and toxicity was determined as the percentage of hatched individuals in each treatment compared with the negative control. Antitoxicity was assessed using the same procedure and experimental concentrations as in toxicity assays, but in combined treatments with 0.15 M H2O2 and comparing the percentage of emerging adults with the positive toxicant control [34]. […] Negative control values were considered as those expected in Chi-square formula used in toxicity assay and positive control values in antitoxicity assays [35]. The same concentrations of toxicity and antitoxicity assays within the same substance were also compared.

[5] = tested on: human breast cancer cells; design: method as in PMID 25691730; settings: cited from earlier work
[6] = Cytotoxicity assay (trypan blue exclusion); type: cell-based, human; settings: human, HL-60 cells; HL-60, 72 h; read-out: IC50 (cytotoxicity), not reached at highest tested concentration
Procedure: (§1) Promyelocytic human leukaemia (HL-60) cells were grown in RPMI-1640 medium (Sigma, R5886) supplemented with heat-inactivated foetal bovine serum (Linus, S01805), L-glutamine 200 mM (Sigma, G7513), and 1x antibiotic-antimycotic solution (Sigma, A5955). Cells were incubated at 37°C in a humidified atmosphere of 5% CO2. Cultures were plated at 2.5 × 10^4 cells/mL density in 10 mL culture bottles and passed every 2 days. The effect of the assayed compounds on cell viability was determined by the trypan blue exclusion test according to our standard procedures. […] After culture, cells were stained with a 1 : 1 volume ratio of trypan blue dye (Sigma, T8154) and counted in a Neubauer chamber at 100x magnification. The survival percentage of each treatment compared with the control was recorded in three independent replicates.

HL-60 cells [7] = test: Cytotoxicity assay (trypan blue exclusion); type: cell-based, human; settings: Homo sapiens; HL-60, highest tested concentration 20.4 mM; read-out: Inhibition of cell growth
Procedure: as §1

D. melanogaster larvae [8] = test: Antitoxicity assay (combined treatment with […] H2O2)
Procedure: as §3

Drosophila melanogaster [9] = test: Genotoxicity, Drosophila wing spot test (SMART); settings: […] H2O2 alone
Procedure: as §2

[10] = mwh/TM3 balancers-heterozygous wings

## Cn1c(=O)c2c(ncn2C)n(C)c1=O [CAF, 1,3,7-trimethylpurine-2,6-dione]
HL-60 cells [1]
  Ladder pattern of fragmented internucleosomal DNA: not observed
Drosophila melanogaster [2]; 0.004 mM, mean ± SE
  Healthspan (80th percentile) (days): 47 ± 2.65^∗∗ days
  Mean lifespan: 62.88 ± 1.7 days
Drosophila melanogaster [2]; 0.004 mM
  Healthspan difference (%): 55.73%
  Mean lifespan difference (%): 6.87%
Drosophila melanogaster [2]; 0.032 mM, mean ± SE
  Mean lifespan (days): 68.86 ± 2.38^∗∗ days
Drosophila melanogaster [2]; 0.032 mM
  Healthspan difference (%): 40.32%
  Mean lifespan difference (%): 17.02%
Drosophila melanogaster [2]; 0.127 mM, mean ± SE
  Mean lifespan (days): 70.91 ± 2.99^∗∗∗ days
Drosophila melanogaster [2]; 0.127 mM
  Healthspan difference (%): 22.23%
  Mean lifespan difference (%): 20.52%
Drosophila melanogaster [2]; 0.51 mM, mean ± SE
  Mean lifespan: 61.14 ± 2.07 days
Drosophila melanogaster [2]; 0.51 mM
  Healthspan difference (%): 26.41%
  Mean lifespan difference (%): 3.91%
Drosophila melanogaster [2]; on average
  Drosophila lifespan increase, on average: more than 15%
LINE-1
  Methylation status: decrease of methylation status
Drosophila melanogaster [3]
  Clones per wings: large simple spots (>2 cells) m = 5: 0.125 (10) clones/wing
  Clones per wings: small single spots (1-2 cells) m = 2: 0.325 (26) clones/wing
  Clones per wings: total spots m = 2: 0.45 clones/wing
  Clones per wings: twin spots m = 5: 0 clones/wing
  Frequency of clone formation per 10^5 cells, control corrected: 0.766 per 10^5 cells
  Frequency of clone formation per 10^5 cells, observed: 1.844 per 10^5 cells
HL-60
  Growth inhibition (in words): inhibited HL-60 growth
D. melanogaster larvae [4]; 0.004 mM
  Survival (%) simple treatment: 100%
D. melanogaster larvae [4]; 0.032 mM
  Survival (%) simple treatment: 100%
D. melanogaster larvae [4]; 0.127 mM
  Survival (%) simple treatment: 100%
D. melanogaster larvae [4]; 0.51 mM
  Survival (%) simple treatment: 100%
[5]
  IC50: ~5 mM
[6]
  IC50 at 72 h: > 20.4 mM
HL-60 cells [7]
  inhibition at 20400 µM: ~40%
D. melanogaster larvae [8]; 0.004 mM + […] hydrogen peroxide
  Survival (%) combined treatment: 54^Δ %
D. melanogaster larvae [8]; 0.032 mM + […] hydrogen peroxide
  Survival (%) combined treatment: 51^Δ %
D. melanogaster larvae [8]; 0.127 mM + […] hydrogen peroxide
  Survival (%) combined treatment: 54.66^Δ %
D. melanogaster larvae [8]; 0.51 mM + […] hydrogen peroxide
  Survival (%) combined treatment: 51.33^Δ %

## OO [H2O2, hydrogen peroxide]
Drosophila melanogaster [9]; [10]
  Clones per wings: large simple spots (>2 cells) m = 5: 0.013 (1) clones/wing
  Clones per wings: small single spots (1-2 cells) m = 2: 0.188 (15) clones/wing
Drosophila melanogaster [9]; mwh/TM3 wings
  Frequency of clone formation per 10^5 cells, observed: 0.819 per 10^5 cells
Drosophila melanogaster [9]; mwh/flr3 wings
  Clones per wings: large simple spots (>2 cells) m = 5: 0.088 (7) clones/wing
  Clones per wings: small single spots (1-2 cells) m = 2: 0.313 (25) clones/wing
  Clones per wings: total spots m = 2: 0.438 clones/wing
  Clones per wings: twin spots m = 5: 0.038 (3) clones/wing
  Frequency of clone formation per 10^5 cells, control corrected: 0.717 per 10^5 cells
  Frequency of clone formation per 10^5 cells, observed: 1.795 per 10^5 cells
Drosophila melanogaster [9]; mwh/flr3 wings, versus negative control
  Statistical diagnosis of total spots: +
D. melanogaster larvae [8]; […] H2O2 alone
  Survival (%) positive toxicant control: 46.66%
